Measured values as given in the supplement of paper PMC10307832.

Columns and labels:
Assay in all cases: relative viability (nuclei count vs DMSO), 5 days (fraction); higher = more cells survive
[1] = compound: NC(=O)[C@@H](CCC(F)(F)F)N(Cc1ccc(-c2ncon2)cc1F)S(=O)(=O)c1ccc(Cl)cc1 [Avagacestat] + CC(=O)c1c(C)c2cnc(Nc3ccc(N4CCNCC4)cn3)nc2n(C2CCCC2)c1=O [Palbociclib] (partner 0.5 µM)
Procedure, shortened: (§1)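 The day after seeding in 1536-well plates, lung cancer cell lines were treated by pin tool with a single drug, or with a fixed anchor-drug dose together with five library-drug doses (not always all listed) in √10 steps. After 5 days, a combined fix-and-stain solution (final 0.05% Triton X-100, 1% formaldehyde, 1 ug/ml Hoechst) was added. Nuclei counted on 4× images gave relative viability as treated counts over vehicle counts, reported as the median of duplicate plates.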

[2] = compound: NC(=O)[C@@H](CCC(F)(F)F)N(Cc1ccc(-c2ncon2)cc1F)S(=O)(=O)c1ccc(Cl)cc1 [Avagacestat] + O=C(c1cc(Cc2n[nH]c(=O)c3ccccc23)ccc1F)N1CCN(C(=O)C2CC2)CC1 [Olaparib] (partner 8 µM)
Procedure, shortened: as §1

[3] = compound: NC(=O)[C@@H](CCC(F)(F)F)N(Cc1ccc(-c2ncon2)cc1F)S(=O)(=O)c1ccc(Cl)cc1 [Avagacestat] + Cc1nc(NC(=O)N2CCC[C@H]2C(N)=O)sc1-c1ccnc(C(C)(C)C(F)(F)F)c1 [Alpelisib] (partner 2 µM)
Procedure, shortened: as §1

[4] = compound: NC(=O)[C@@H](CCC(F)(F)F)N(Cc1ccc(-c2ncon2)cc1F)S(=O)(=O)c1ccc(Cl)cc1 [Avagacestat] + Nc1nc2[nH]cc(CCc3ccc(C(=O)N[C@@H](CCC(=O)O)C(=O)O)cc3)c2c(=O)[nH]1 [Pemetrexed] (partner 0.2 µM)
Procedure, shortened: as §1

Cell Line	relative viability ([1]; first compound 0.08 µM)	relative viability ([1]; first compound 0.253 µM)	relative viability ([1]; first compound 0.8 µM)	relative viability ([1]; first compound 2.53 µM)	relative viability ([1]; first compound 8 µM)	relative viability ([2]; first compound 0.08 µM)	relative viability ([2]; first compound 0.253 µM)	relative viability ([2]; first compound 0.8 µM)	relative viability ([2]; first compound 2.53 µM)	relative viability ([2]; first compound 8 µM)	relative viability ([3]; first compound 0.08 µM)	relative viability ([3]; first compound 0.253 µM)	relative viability ([3]; first compound 0.8 µM)	relative viability ([3]; first compound 2.53 µM)	relative viability ([3]; first compound 8 µM)	relative viability ([4]; first compound 0.08 µM)	relative viability ([4]; first compound 0.253 µM)	relative viability ([4]; first compound 0.8 µM)	relative viability ([4]; first compound 2.53 µM)	relative viability ([4]; first compound 8 µM)
201T	0.361	0.307	0.382	0.331	0.352	0.925	0.812	0.871	0.79	0.737	1.04	1.02	1.04	0.892	0.887	0.314	0.352	0.351	0.301	0.335
A549	–	–	–	–	–	0.465	0.301	0.622	0.265	0.34	1.02	0.99	0.694	0.673	0.771	–	–	–	–	–
A-427	0.506	0.517	0.516	0.539	0.544	0.832	0.778	0.83	0.684	0.751	1.14	1.2	1.1	1.07	1.14	1.07	1.09	1.22	1.04	1.07
ABC-1	0.846	0.542	0.67	0.654	0.522	0.904	0.512	0.836	0.776	0.757	1.11	1.02	1.26	1.11	1.29	–	–	–	–	–
BEN	0.466	0.456	0.502	0.513	0.482	1.12	1.24	1.05	0.838	1.05	1.13	1.01	0.944	0.774	1.07	0.879	0.897	0.851	0.904	0.807
CAL-12T	0.535	0.384	0.474	0.478	0.5	0.73	0.715	0.773	0.782	0.83	1.39	1.74	1.27	1.17	1.24	1.7	1.49	1.67	1.42	1.25
COR-L23	0.283	0.266	0.284	0.276	0.217	0.326	0.3	0.339	0.308	0.284	0.982	1.01	0.788	0.743	0.568	0.178	0.197	0.207	0.214	0.201
COR-L 105	0.435	0.353	0.429	0.391	0.4	0.724	0.664	0.845	0.601	0.565	1.14	0.917	0.976	0.679	0.612	1.2	1.21	1.12	0.983	1.02
Calu-6	–	–	–	–	–	0.7	0.862	0.722	0.609	0.585	1.18	1.16	1.12	1.12	0.993	–	–	–	–	–
ChaGo-K-1	1.05	1.01	0.933	0.887	0.798	0.431	0.435	0.394	0.437	0.394	–	–	–	–	–	0.275	0.271	0.265	0.266	0.267
EKVX	0.392	0.374	0.405	0.365	0.293	1.04	0.926	0.918	0.73	0.769	0.974	0.971	0.878	0.832	0.811	0.5	0.462	0.529	0.439	0.373
EMC-BAC-2	0.539	0.577	0.556	0.52	0.543	0.542	0.626	0.623	0.548	0.616	0.897	0.81	0.748	0.653	0.717	0.52	0.595	0.634	0.557	0.544
EPLC-272H	0.368	0.344	0.327	0.32	0.291	0.939	1.04	0.905	0.783	0.635	1.05	1	1.02	1.09	0.865	0.322	0.429	0.318	0.31	0.267
H3255	0.312	0.361	0.331	0.373	0.401	0.626	0.663	0.609	0.621	0.572	0.759	0.736	0.836	0.678	0.741	0.57	0.622	0.591	0.552	0.557
HARA	0.26	0.237	0.248	0.263	0.24	0.852	0.958	0.869	0.501	0.834	0.914	0.783	0.929	0.782	0.567	0.227	0.203	0.226	0.257	0.244
HCC-15	0.906	1.01	0.78	0.68	0.694	0.755	0.887	0.862	0.77	0.674	1.01	1.05	0.93	0.861	0.802	0.227	0.22	0.232	0.212	0.194
HCC-44	0.976	0.997	0.983	1.04	1.01	1.04	1.05	1.07	1.01	1	0.939	0.746	0.8	0.667	0.645	0.733	0.68	0.706	0.66	0.639
